Results on 4 compounds are retold here after patent EP1619195A2, “Compounds isolated from gamboge resin having activity in inhibiting the growth of tumor/cancer cells and pharmaceutical compositions comprising the same” (priority 2004, dated 2006).

Data set [1] deals with HUVEC. Briefly: in vitro. To be noted: for LC50: 50% cell destroying lethal concentration; for pIC50: positive control. An excerpt:
(§1) The cancer cell growth inhibition test was primarily used to detect the effect of a candidate drug on cancer cell proliferation. The working principle involved therein is the abilityof viable cells to shift alamarBlue (Biosource, USA) from its originally non-fluorescent oxidized state to a reduced form (fluorescent, red) having fluorescence via metabolic reaction. According to the fluorescent data result generated by the alamarBlue reagent thus obtained, the proliferation of the viable cells and cell activity can be quantified for detection.
(§2) In this experiment, the assay concentrations of the candidate drug were set to be 0.01, 0.1, 1, 10, and 100 µg/ml, and the following cell lines were used: 6 human cancer cells MCF-7 (breast cancer), HT-29 (colon cancer), HL-60 (leukemia), HepG2 (liver cancer), A549 (lung cancer), and U937 (lymphoma cancer), and a normal human umbilicalvenalepithelialcell (HUVEC).

Data set [2] has as its system U937 (lymphoma cancer). Briefly: cells. To be noted: for LC50: 50% cell destroying lethal concentration; for pIC50: positive control.
From the text: as §1, §2

In data set [3] the test system is A549 (lung cancer). Briefly: cells. To be noted: for LC50: 50% cell destroying lethal concentration; for pIC50: positive control.
From the text: as §1, §2

Data set [4] has as its system MCF-7 (breast cancer). Briefly: cells. The note with it: for LC50: 50% cell destroying lethal concentration.
From the text: as §1, §2

Data set [5] has as its system HT-29 (colon cancer). Briefly: cells. The note with it: for LC50: 50% cell destroying lethal concentration; for pIC50: positive control.
From the text: as §1, §2

Data set [6] deals with HepG2 (liver cancer). Briefly: cells. The note with it: for LC50: 50% cell destroying lethal concentration; for pIC50: positive control.
From the text: as §1, §2

Data set [7] has as its system HL-60 (leukemia). Kind of data set: cells. The note with it: for LC50: 50% cell destroying lethal concentration; for pIC50: positive control.
From the text: as §1, §2

In data set [8] the test system is Human breast cancer cells MCF-7 (ATCC HTB-22). Kind of data set: In vivo tumor growth inhibition, MCF-7 xenograft in SCID mice. To be noted: 2 mg/kg x 5, intraperitoneal, 4-day interval. The method, then:
Mixture formulation TSB-9 was further subjected to an animal test, in which female mice (6-8 weeks old, weighing 20-22 grams) originally from C.B-17/Icr background and having Severe Combined Immune Deficiency (SCID) were used.
Human breast cancer cells MCF-7 (ATCC HTB-22) (1x10^7 cells/0.2 ml) were implanted subcutaneously into the dorsal side of the mice, and 50 µg/mouse of estradiol benzoate (Sigma, USA) was injected subcutaneously into the mice weekly as supplement for a total of 4 weeks. When the tumor growth reached ≥5 mm in diameter (that very day was denoted as day 1), tumor-bearing […] mice were randomly divided into 4 groups (6 mice in each group).
Mixture formulation TSB-9 was dissolved in 10%DMSO, and was administered orally to the mice every day at two dosages 40 mg/kg and 80 mg/kg, respectively, for a total of 21 consecutive days. […] This treatment group served as a positive control.
Measurements were taken once every 4 days during the experiment periods, and were recorded.

pIC50: −log10 of the molar value. Values after ≈ are worked out from the molar mass of the structure shown. Values joined by “and” are separate entries in the source; they are usually repeats but may differ in a detail not shown here. Equal values may be shown once. Marks after values point to notes of the source that are not given here.

As a reminder, the LC50 is the concentration that kills 50% of the test population. Higher therefore signals a less lethal substance. As a reminder, the IC50 is the concentration that inhibits the measured activity by half. A high value points to lower potency. With `CC(C)=CCc1c2c(c(O)c3c1OC14C(=CC5CC1C(C)(C)OC4(CC=C(C)CO)C5=O)C3=O)C=CC(C)(C)O2` (stereo not drawn) [TSB-6, isomorellinol], the LC50 in data set [1] (HUVEC (normal human cell)) turned out to be 9.3 µg/mL (≈ 17 µM); in data set [2] (U937) it was 3.8 µg/mL (≈ 6.95 µM); in data set [3] (A549), 9.6 µg/mL (≈ 17.6 µM); in data set [4] (MCF-7), 5.8 µg/mL (≈ 10.6 µM); in data set [5] (HT-29), 8.5 µg/mL (≈ 15.5 µM); in data set [6] (HepG2) it was 3.0 µg/mL (≈ 5.49 µM). For the same compound, in data set [7] (HL-60), the LC50 is 6.2 µg/mL (≈ 11.3 µM). Further, the IC50 stood at 1.5 µg/mL in data set [1] (Homo sapiens, HUVEC); 1.3 µg/mL in data set [2] (Homo sapiens, U-937); 2 µg/mL in data set [3] (Homo sapiens, A549); 0.9 µg/mL in data set [4] (Homo sapiens, MCF7); 5.2 µg/mL in data set [5] (Homo sapiens, HT-29); 1.2 µg/mL in data set [6] (Homo sapiens, HepG2). Besides, 1.4 µg/mL corresponded to half-maximal inhibition in data set [7] (Homo sapiens, HL-60) (IC50).
Take `CC(C)=CCc1c2c(c(O)c3c1OC14C(=CC5CC1C(C)(C)OC4(CC=C(C)C(=O)O)C5=O)C3=O)C=CC(C)(C)O2` (stereo not drawn) [TSB-7, morellic acid]: the LC50 in data set [1] (HUVEC (normal human cell)) worked out at 4.8 µg/mL (≈ 8.56 µM); in data set [2] (U937), 4.8 µg/mL (≈ 8.56 µM); in data set [3] (A549) it was 3.4 µg/mL (≈ 6.06 µM); in data set [4] (MCF-7) it was 6.2 µg/mL (≈ 11.1 µM); in data set [5] (HT-29), 7.2 µg/mL (≈ 12.8 µM); in data set [6] (HepG2), 3.9 µg/mL (≈ 6.96 µM). In data set [7] (HL-60), this compound had an LC50 of 5.6 µg/mL (≈ 9.99 µM). In addition, the IC50 in data set [1] (HUVEC (normal human cell), 50% cell growth inhibition concentration) was found to be 0.88 µg/mL; in data set [2] (U937, 50% cell growth inhibition concentration), 1.6 µg/mL; in data set [3] (A549, 50% cell growth inhibition concentration), 0.76 µg/mL; in data set [4] (MCF-7, 50% cell growth inhibition concentration), 0.98 µg/mL; in data set [5] (HT-29, 50% cell growth inhibition concentration), 2.8 µg/mL; in data set [6] (HepG2, 50% cell growth inhibition concentration), 1.7 µg/mL. The same compound came in with an IC50 in data set [7] (HL-60, 50% cell growth inhibition concentration) of 1.2 µg/mL.
With `CC(C)=CCc1c2c(c(O)c3c1OC14C(=CC5CC1C(C)(C)OC4(CC=C(C)C)C5=O)C3=O)C=CC(C)(C)O2` (stereo not drawn) [TSB-8, desoxymorellin], the LC50 in data set [1] (HUVEC (normal human cell)) was 40 µg/mL (≈ 75.4 µM); in data set [2] (U937) it was above 100 µg/mL; in data set [3] (A549), 56 µg/mL (≈ 106 µM); in data set [4] (MCF-7), 83 µg/mL (≈ 156 µM); in data set [5] (HT-29), 69 µg/mL (≈ 130 µM); in data set [6] (HepG2), 31 µg/mL (≈ 58.4 µM). In data set [7] (HL-60), this compound registered an LC50 above 100 µg/mL. For the same compound, the IC50 stood at 2.8 µg/mL in data set [1] (Homo sapiens, HUVEC, HUVEC (normal human cell), 50% cell growth inhibition concentration); 6.2 µg/mL in data set [2] (Homo sapiens, U-937); 4.8 µg/mL in data set [3] (Homo sapiens, A549, A549, 50% cell growth inhibition concentration); 5.3 µg/mL in data set [4] (Homo sapiens, MCF7, MCF-7, 50% cell growth inhibition concentration); 6.7 µg/mL in data set [5] (Homo sapiens, HT-29, HT-29, 50% cell growth inhibition concentration); 3.9 µg/mL in data set [6] (Homo sapiens, HepG2, HepG2, 50% cell growth inhibition concentration). Besides, it took 6.5 µg/mL to reach half-maximal inhibition in data set [7] (Homo sapiens, HL-60, HL-60, 50% cell growth inhibition concentration) (IC50).
What is called pIC50 is the IC50 on a negative log10 scale, so that one unit is a factor of ten. The low end stands for a large IC50, the high end for a small IC50. As for `CO[C@@]12[C@H](COC(N)=O)C3=C(C(=O)C(C)=C(N)C3=O)N1C[C@@H]1N[C@@H]12` [mitomycin, reference compound], the pIC50 in data set [1] (HUVEC (normal human cell)) was 6.62; in data set [1] (HUVEC (normal human cell), listed as Mitomycin), 6.77; in data set [2] (Homo sapiens, U-937, U937), 7.16; in data set [2] (U937), 7.46 and 7.25; in data set [3] (A549), 7.21; in data set [3] (Homo sapiens, A549, A549), 7.17. Further, the pIC50 in data set [4] (MCF-7, positive control) was 7.16 and 7.47; in data set [5] (HT-29) it was 6.92 and 7.05; in data set [5] (Homo sapiens, HT-29, HT-29), 7.05; in data set [6] (HepG2), 7.59; in data set [6] (HepG2, listed as Mitomycin), 7.21 and 7.44; in data set [7] (HL-60), 7.33 and 7.57. The same compound had a pIC50 in data set [7] (Homo sapiens, HL-60, HL-60) of 7.41. In addition, the “Tumor growth (%T/C)” value in data set [8] (Day 1) is recorded as 98%; in data set [8] (Day 5), 31* %; in data set [8] (Day 9), 1* %; in data set [8] (Day 13) it was -6* %; in data set [8] (Day 17), -23* %; in data set [8] (Day 21), -36* %. Further, the “Tumor growth (%T/C)” value is given as -56* % in data set [8] (Day 25) and -70* % in data set [8] (Day 29).
